Results reported in patent publication US20200138890A1, “PHARMACEUTICAL COMPOSITION FOR PREVENTION AND TREATMENT OF PROSTATIC HYPERPLASIA AND ERECTILE DYSFUNCTION CAUSED BY ANDROPAUSE COMPRISING EXTRACT OF LESPEDEZA CUNEATA AND TRIGONELLAE SEMEN” (DUHANBIO CO., LTD., priority 2017, published 2020).
Where a name gives a salt, the structure may show the parent alone.

Tests used:
[1] = system: male SD rats with prostate gland hypertrophy induced by testosterone; test: Inhibition of prostatic hyperplasia in vivo (testosterone-induced prostate gland hypertrophy, prostate weight); conditions: testosterone 3 mg/kg/day s.c.; Examples 50 mg/kg oral, finasteride 2 mg/kg oral, 3 weeks
Text: At this time, finasteride was used as the positive control group.
On the day of the last administration, the animals were weighed and then sacrificed, and blood was collected and the prostate glands were excised.

[2] = system: male SPF New Zealand albino rabbits; test: Erectile promoting effect in vivo (erection start time and duration); set-up: species or system rabbit; conditions: oral, Examples 50 mg/kg, sildenafil citrate 20 mg/kg
Protocol: Based on the above results, the effects on erectile promotion of the compositions of Examples 6 to 9 of the present invention in vivo were measured. At this time, sildenafil citrate was used as a positive control group. Specifically, as experimental animals, six male SPF New Zealand albino rabbits (about 3.5 to 4.0 kg body weight, Samtako, Korea) per test group were used, and these rabbits were placed in cages and fed a constant amount of conventional solid feed for rabbits and water under the same condition for 4 days or more. The rabbit was fasted for 48 hours or more and then used for the test. When fasting, the rabbits were allowed to drink water freely. To the rabbit prepared as described above, the compositions of Examples 6 to 9 of the present invention were orally administered at a dose of 50 mg/kg per animal. Meanwhile, sildenafil citrate, a positive control group, was orally administered at a dose of 20 mg/kg. After administration as described above, the erection start time and duration were measured.

[3] = listed as positive control group

Compound	Prostate gland weight [1] [g]	Prostate gland/body weight (%) [1] [%]	Erection maintenance time ([2]; listed as Control group) [min]	Erection start time ([2]; listed as Control group) [min]	Maximum Erection time ([2]; listed as Control group) [min]	Erection maintenance time [2, 3] [min]	Erection start time [2, 3]	Maximum Erection time [2, 3]
CC(C)(C)NC(=O)[C@H]1CC[C@H]2[C@@H]3CC[C@H]4NC(=O)C=C[C@]4(C)[C@H]3CC[C@]12C [Finasteride, finasteride]	0.92 ± 0.11	0.24 ± 0.02						
CCCc1nn(C)c2c(=O)[nH]c(-c3cc(S(=O)(=O)N4CCN(C)CC4)ccc3OCC)nc12 [sildenafil citrate]			120 ± 5	6.2 ± 1.1	19 ± 1	120	about 6 Min.	about 19 Min.
